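All cell lines were grown in 96-well plates and treated with compound for 48 hours. TGI: concentration producing complete growth inhibition.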
Tests used:
Assay in all cases: inhibition of tumour cell growth, NCI panel, 48 h
786-0 renal = tested on: 786-0 renal
A498 renal = tested on: A498 renal
A549 NSCLC = tested on: A549 NSCLC
ACHN renal = tested on: ACHN renal
BT-549 breast = tested on: BT-549 breast
CAKI-1 renal = tested on: CAKI-1 renal
CCRF-CEM leukemia = tested on: CCRF-CEM leukemia
COLO 205 colon = tested on: COLO 205 colon
DLD-1 colon = tested on: DLD-1 colon
DMS 114 small cell lung = tested on: DMS 114 small cell lung
DMS 273 small cell lung = tested on: DMS 273 small cell lung
DU-145 prostate = tested on: DU-145 prostate
EKVX NSCLC = tested on: EKVX NSCLC
HCC-2998 colon = tested on: HCC-2998 colon
HCT-116 colon = tested on: HCT-116 colon
HCT-15 colon = tested on: HCT-15 colon
HL-60(TB) leukemia = tested on: HL-60(TB) leukemia
HOP-18 NSCLC = tested on: HOP-18 NSCLC
HOP-62 NSCLC = tested on: HOP-62 NSCLC
HOP-92 NSCLC = tested on: HOP-92 NSCLC
HS 578T breast = tested on: HS 578T breast
HT29 colon = tested on: HT29 colon
IGROV1 ovarian = tested on: IGROV1 ovarian
K-562 leukemia = tested on: K-562 leukemia
KM12 colon = tested on: KM12 colon
KM20L2 colon = tested on: KM20L2 colon
LOX IMVI melanoma = tested on: LOX IMVI melanoma
LXFL 529 NSCLC = tested on: LXFL 529 NSCLC
M14 melanoma = tested on: M14 melanoma
M19-MEL melanoma = tested on: M19-MEL melanoma
MALME-3M melanoma = tested on: MALME-3M melanoma
MCF7 breast = tested on: MCF7 breast
MDA-MB-231 breast = tested on: MDA-MB-231 breast
MDA-MB-435 = tested on: MDA-MB-435
MDA-N = tested on: MDA-N
MOLT-4 leukemia = tested on: MOLT-4 leukemia
NCI-H226 lung = tested on: NCI-H226 lung
NCI-H23 lung = tested on: NCI-H23 lung
NCI-H460 lung = tested on: NCI-H460 lung
NCI-H522 lung = tested on: NCI-H522 lung
NCI/ADR-RES ovarian = tested on: NCI/ADR-RES ovarian
OVCAR-3 ovarian = tested on: OVCAR-3 ovarian
OVCAR-4 ovarian = tested on: OVCAR-4 ovarian
OVCAR-5 ovarian = tested on: OVCAR-5 ovarian
OVCAR-8 ovarian = tested on: OVCAR-8 ovarian
PC-3 prostate = tested on: PC-3 prostate
RPMI-8226 leukemia = tested on: RPMI-8226 leukemia
RXF 393 renal = tested on: RXF 393 renal
SF-268 CNS = tested on: SF-268 CNS
SF-295 CNS = tested on: SF-295 CNS
SF-539 CNS = tested on: SF-539 CNS
SK-MEL-2 melanoma = tested on: SK-MEL-2 melanoma
SK-MEL-28 melanoma = tested on: SK-MEL-28 melanoma
SK-MEL-5 melanoma = tested on: SK-MEL-5 melanoma
SK-OV-3 ovarian = tested on: SK-OV-3 ovarian
SN12C renal = tested on: SN12C renal
SNB-19 CNS = tested on: SNB-19 CNS
SNB-75 CNS = tested on: SNB-75 CNS
SR leukemia = tested on: SR leukemia
SW-620 colon = tested on: SW-620 colon
T-47D breast = tested on: T-47D breast
TK-10 renal = tested on: TK-10 renal
U251 CNS = tested on: U251 CNS
UACC-257 melanoma = tested on: UACC-257 melanoma
UACC-62 melanoma = tested on: UACC-62 melanoma
UO-31 renal = tested on: UO-31 renal
XF 498 CNS = tested on: XF 498 CNS
SNB-78 CNS = tested on: SNB-78 CNS

For COc1ccc(/C=c2/s/c(=C(\C#N)c3nc4ccccc4[nH]3)n(-c3ccccc3)c2=O)cc1, the TGI (786-0 renal) was > 42.1 µM, the TGI (A498 renal) was > 76.5 µM and the TGI (A549 NSCLC) was > 100 µM. The TGI (ACHN renal) was > 100 µM, the TGI (BT-549 breast) was 54.8 µM and the TGI (CAKI-1 renal) was > 100 µM. For the same compound, the TGI (CCRF-CEM leukemia) was > 100 µM, the TGI (COLO 205 colon) was > 100 µM and the TGI (DLD-1 colon) was > 100 µM. The TGI (DMS 114 small cell lung) was > 100 µM, the TGI (DMS 273 small cell lung) was > 100 µM and the TGI (DU-145 prostate) was > 100 µM. For the same compound, the TGI (EKVX NSCLC) was > 100 µM, the TGI (HCC-2998 colon) was > 100 µM and the TGI (HCT-116 colon) was > 55.7 µM. For the same compound, the TGI (HCT-15 colon) was > 100 µM, the TGI (HL-60(TB) leukemia) was > 100 µM and the TGI (HOP-18 NSCLC) was 79 µM. The TGI (HOP-62 NSCLC) was > 54 µM, the TGI (HOP-92 NSCLC) was 37.7 µM and the TGI (HS 578T breast) was 22.4 µM. The TGI (HT29 colon) was 24.7 µM, the TGI (IGROV1 ovarian) was > 100 µM and the TGI (K-562 leukemia) was > 100 µM. The TGI (KM12 colon) was > 100 µM, the TGI (KM20L2 colon) was > 100 µM and the TGI (LOX IMVI melanoma) was > 100 µM. The TGI (LXFL 529 NSCLC) was > 100 µM, the TGI (M14 melanoma) was > 100 µM and the TGI (M19-MEL melanoma) was > 100 µM. The TGI (MALME-3M melanoma) was > 88.6 µM, the TGI (MCF7 breast) was > 100 µM and the TGI (MDA-MB-231 breast) was 49.5 µM. The TGI (MDA-MB-435) was > 100 µM, the TGI (MDA-N) was > 100 µM and the TGI (MOLT-4 leukemia) was > 100 µM. The TGI (NCI-H226 lung) was 92.7 µM, the TGI (NCI-H23 lung) was > 63.5 µM and the TGI (NCI-H460 lung) was > 74.9 µM. The TGI (NCI-H522 lung) was > 100 µM, the TGI (NCI/ADR-RES ovarian) was 20.3 µM and the TGI (OVCAR-3 ovarian) was > 75.3 µM. The TGI (OVCAR-4 ovarian) was 28.1 µM, the TGI (OVCAR-5 ovarian) was > 100 µM and the TGI (OVCAR-8 ovarian) was 51 µM. For the same compound, the TGI (PC-3 prostate) was 67.3 µM, the TGI (RPMI-8226 leukemia) was > 100 µM and the TGI (RXF 393 renal) was > 100 µM. The TGI (SF-268 CNS) was > 100 µM, the TGI (SF-295 CNS) was > 100 µM and the TGI (SF-539 CNS) was > 61.5 µM. The TGI (SK-MEL-2 melanoma) was > 100 µM, the TGI (SK-MEL-28 melanoma) was > 100 µM and the TGI (SK-MEL-5 melanoma) was > 100 µM. The TGI (SK-OV-3 ovarian) was 71.6 µM, the TGI (SN12C renal) was > 100 µM and the TGI (SNB-19 CNS) was > 100 µM. For the same compound, the TGI (SNB-75 CNS) was > 68.8 µM, the TGI (SR leukemia) was > 100 µM and the TGI (SW-620 colon) was > 58.9 µM. The TGI (T-47D breast) was > 100 µM, the TGI (TK-10 renal) was > 100 µM and the TGI (U251 CNS) was > 100 µM. The TGI (UACC-257 melanoma) was > 100 µM, the TGI (UACC-62 melanoma) was > 47.5 µM and the TGI (UO-31 renal) was > 100 µM. For the same compound, the TGI (XF 498 CNS) was 88.6 µM.
In the case of CCn1c(=O)nc2n(-c3ccccc3)c3ccccc3nc-2c1=O, the TGI (786-0 renal) is reported as > 100 µM, the TGI (A498 renal) is reported as > 100 µM and the TGI (A549 NSCLC) is reported as > 100 µM. For the same compound, the TGI (ACHN renal) was 68.7 µM, the TGI (CAKI-1 renal) was > 100 µM and the TGI (CCRF-CEM leukemia) was 72.3 µM. The TGI (COLO 205 colon) was 16 µM, the TGI (DLD-1 colon) was > 100 µM and the TGI (DMS 114 small cell lung) was 30.3 µM. For the same compound, the TGI (DMS 273 small cell lung) was 34.7 µM, the TGI (EKVX NSCLC) was > 100 µM and the TGI (HCC-2998 colon) was 94 µM. The TGI (HCT-15 colon) was 65.4 µM, the TGI (HL-60(TB) leukemia) was 38.5 µM and the TGI (HOP-18 NSCLC) was > 100 µM. The TGI (HOP-62 NSCLC) was > 100 µM, the TGI (HOP-92 NSCLC) was 62.4 µM and the TGI (IGROV1 ovarian) was 74.2 µM. The TGI (K-562 leukemia) was 61.2 µM, the TGI (KM12 colon) was > 100 µM and the TGI (KM20L2 colon) was 85.4 µM. The TGI (LXFL 529 NSCLC) was > 100 µM, the TGI (M14 melanoma) was 35 µM and the TGI (M19-MEL melanoma) was 25.2 µM. For the same compound, the TGI (MALME-3M melanoma) was 31.7 µM, the TGI (MOLT-4 leukemia) was 40.4 µM and the TGI (NCI-H226 lung) was 63.8 µM. For the same compound, the TGI (NCI-H23 lung) was > 100 µM, the TGI (NCI-H460 lung) was > 100 µM and the TGI (NCI-H522 lung) was > 100 µM. The TGI (OVCAR-3 ovarian) was 43.1 µM, the TGI (OVCAR-4 ovarian) was 25.9 µM and the TGI (OVCAR-5 ovarian) was 66.4 µM. For the same compound, the TGI (OVCAR-8 ovarian) was 67.9 µM, the TGI (RPMI-8226 leukemia) was > 100 µM and the TGI (SF-268 CNS) was 85.1 µM. The TGI (SF-295 CNS) was > 100 µM, the TGI (SF-539 CNS) was 38.8 µM and the TGI (SK-MEL-2 melanoma) was 76.3 µM. The TGI (SK-MEL-28 melanoma) was > 100 µM, the TGI (SK-MEL-5 melanoma) was 22.8 µM and the TGI (SK-OV-3 ovarian) was > 100 µM. For the same compound, the TGI (SN12C renal) was 64.8 µM, the TGI (SNB-19 CNS) was 76 µM and the TGI (SNB-75 CNS) was > 100 µM. For the same compound, the TGI (SNB-78 CNS) was > 100 µM, the TGI (SW-620 colon) was 86.5 µM and the TGI (TK-10 renal) was > 100 µM. The TGI (U251 CNS) was 75.2 µM, the TGI (UACC-257 melanoma) was 38.7 µM and the TGI (UACC-62 melanoma) was 31.9 µM. For the same compound, the TGI (UO-31 renal) was > 100 µM and the TGI (XF 498 CNS) was 34.5 µM.
